Data published in patent US6737383B1, “Herbicidal oxadiazolidines” (priority 1999, dated 2004).

Tests used:
green foxtail = assay: Test E green foxtail; assay type: in vivo, Setaria viridis; settings: Preemergence; for Plant response rating, Green foxtail: 0 to 100 scale where 0 is no effect and 100 is complete control
winter wheat [1] = assay: Test E winter wheat; assay type: in vivo, Triticum aestivum; settings: Postemergence; for Plant response rating, Wheat (winter): 0 to 100 scale
How it was run: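 Postemergence: 60:40 sandy loam/greenhouse potting mix, 1- to 4-leaf stage. Formulation: solvent plus surfactant. Assessment: visual comparison with untreated controls at ~21–28 days.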

blackgrass = assay: Test E blackgrass; assay type: in vivo, Alopecurus myosuroides; settings: Preemergence; for Plant response rating, Blackgrass: 0 to 100 scale where 0 is no effect and 100 is complete control
wild oat = assay: Test E wild oat; assay type: in vivo, Avena fatua; settings: Preemergence; for Plant response rating, Wild oat: 0 to 100 scale where 0 is no effect and 100 is complete control
sugar beet = assay: Test B pre/postemergence sugar beet; assay type: in vivo, Beta vulgaris
How it was run: (§1)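 Herbicidal effect was estimated by eye on a ten-point control scale after plants spent twelve to sixteen days in a greenhouse following soil or foliar treatment. Foliar sprays targeted plants at one to four leaves; all doses were formulated in a non-phytotoxic solvent with surfactant.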

winter barley = assay: Test E winter barley; assay type: in vivo, Hordeum vulgare; settings: Preemergence; for Plant response rating, Barley (winter): 0 to 100 scale where 0 is no effect and 100 is complete control
Italian ryegrass = assay: Test E Italian ryegrass; assay type: in vivo, Lolium multiflorum; settings: Preemergence; for Plant response rating, I. Ryegrass: 0 to 100 scale where 0 is no effect and 100 is complete control
winter wheat [2] = assay: Test E winter wheat; assay type: in vivo, Triticum aestivum; settings: Preemergence; for Plant response rating, Wheat (winter): 0 to 100 scale where 0 is no effect and 100 is complete control
cocklebur = assay: Test B pre/postemergence cocklebur; assay type: in vivo, Xanthium strumarium
How it was run: as §1

[3] = Postemergence, Rate 125 g/ha, scale of 0 to 10 where 0 is no effect and 10 is complete control
[4] = Preemergence, Rate 62 g/ha, scale of 0 to 10 where 0 is no effect and 10 is complete control
[5] = Preemergence, Rate 125 g/ha, 0 is no effect, 10 is complete control
[6] = Preemergence, Rate 250 g/ha, scale 0 to 10, 0 is no effect, 10 is complete control
[7] = Preemergence, Rate 500 g/ha, scale 0 to 10 (0 no effect, 10 complete control)
[8] = Rate 62 g/ha, Postemergence, scale of 0 to 10 where 0 is no effect and 10 is complete control
[9] = Rate 250 g/ha, Postemergence, scale 0 to 10, 0 is no effect, 10 is complete control
[10] = Rate 500 g/ha, Postemergence, scale 0 to 10

## CC(C)N(C(=O)n1oc(=O)n([C@@H](C)c2ccccc2)c1=O)c1ccc(F)cc1 [Compound 167]
Green foxtail; Rate 250 g/ha
  Green foxtail plant response rating (0 to 100 scale): 60
Green foxtail; Rate 500 g/ha
  Plant response rating, Green foxtail: 85
Green foxtail; Rate 1000 g/ha
  Plant response rating, Green foxtail: 100
Winter wheat [1]; Rate 1000 g/ha, 0 is no effect and 100 is complete control
  Plant response rating, Wheat (winter): 50
Winter wheat [1]; Rate 500 g/ha, 0 no effect, 100 complete control
  Plant response rating, Wheat (winter): 40
Winter wheat [1]; Rate 250 g/ha, 0 to 100 scale where 0 is no effect and 100 is complete control
  Wheat (winter) plant response rating: 30
blackgrass; Rate 250 g/ha
  Blackgrass plant response rating (0 to 100 scale): 50
blackgrass; Rate 500 g/ha
  Plant response rating, Blackgrass: 60
blackgrass; Rate 1000 g/ha
  Plant response rating, Blackgrass: 80
Wild oat; Rate 250 g/ha
  Wild oat plant response rating (0 to 100 scale): 30
Wild oat; Rate 500 g/ha
  Plant response rating, Wild oat: 40
Wild oat; Rate 1000 g/ha
  Plant response rating, Wild oat: 50
Sugar beet; [3]
  Sugarbeets plant response rating: 0
Sugar beet; [4]
  Sugarbeets plant response rating: 0
Sugar beet; [5]
  Sugarbeets plant response rating (0 to 10 scale): 2
Sugar beet; [6]
  Sugarbeets plant response rating: 5
Sugar beet; [7]
  Sugarbeets plant response rating: 5
Sugar beet; [8]
  Sugarbeets plant response rating: 0
Sugar beet; [9]
  Plant response rating, Sugarbeets: 0
Sugar beet; [10]
  Sugarbeets plant response rating: 0
Winter barley; Rate 250 g/ha
  Barley (winter) plant response rating (0 to 100 scale): 40
Winter barley; Rate 500 g/ha
  Plant response rating, Barley (winter): 40
Winter barley; Rate 1000 g/ha
  Plant response rating, Barley (winter): 20
Italian ryegrass; Rate 250 g/ha
  I. Ryegrass plant response rating (0 to 100 scale): 30
Italian ryegrass; Rate 500 g/ha
  Plant response rating, I. Ryegrass: 65
Italian ryegrass; Rate 1000 g/ha
  Plant response rating, I. Ryegrass: 80
Winter wheat [2]; Rate 250 g/ha
  Wheat (winter) plant response rating (0 to 100 scale): 10
Winter wheat [2]; Rate 500 g/ha
  Plant response rating, Wheat (winter): 20
Winter wheat [2]; Rate 1000 g/ha
  Plant response rating, Wheat (winter): 30
cocklebur; [3]
  Cocklebur plant response rating: 0
cocklebur; [4]
  Cocklebur plant response rating: 0
cocklebur; [5]
  Cocklebur plant response rating (0 to 10 scale): 0
cocklebur; [6]
  Cocklebur plant response rating: 0
cocklebur; [7]
  Cocklebur plant response rating: 0
cocklebur; [8]
  Cocklebur plant response rating: 0
cocklebur; [9]
  Plant response rating, Cocklebur: 0
cocklebur; [10]
  Cocklebur plant response rating: 2
